# Laboratory results from ChEMBL document CHEMBL1201862, “PubChem BioAssay data set” (2004).
# Active and inactive are the calls of the source.
# How the values were obtained:
# Streptococcus = assay: GAS UMAA2166 growth inhibition – luminescence, BacTiterGlo, counter-screen for streptokinase expression inhibitor project, dose response (AID 1915); format: functional, organism-based;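 further: potency for reduction of bacterial viability or growth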
# Streptokinase A = target: T1, Streptokinase A (Streptococcus pyogenes serotype M1, UniProt P10520); assay: viability-normalized secreted streptokinase activity reduction – plasminogen activation absorbance, OD405, dose response (AID 1914); format: functional, Streptococcus pyogenes M1 GAS;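 further: secreted streptokinase activity via plasminogen activation per viability signal from cell pellet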
# T1 sequence (P10520 whole entry): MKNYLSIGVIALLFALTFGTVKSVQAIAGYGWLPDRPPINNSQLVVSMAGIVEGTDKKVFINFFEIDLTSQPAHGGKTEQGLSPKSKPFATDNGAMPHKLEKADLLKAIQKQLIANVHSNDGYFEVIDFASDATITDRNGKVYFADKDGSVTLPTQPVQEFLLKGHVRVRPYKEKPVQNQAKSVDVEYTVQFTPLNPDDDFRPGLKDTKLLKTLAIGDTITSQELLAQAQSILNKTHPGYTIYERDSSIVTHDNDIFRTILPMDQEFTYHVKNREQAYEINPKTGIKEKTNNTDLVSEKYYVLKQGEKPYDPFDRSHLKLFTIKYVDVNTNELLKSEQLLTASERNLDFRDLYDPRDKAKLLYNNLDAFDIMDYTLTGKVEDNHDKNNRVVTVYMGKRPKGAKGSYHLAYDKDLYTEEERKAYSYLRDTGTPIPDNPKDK
# [1] = non-specific 3'UTR reporter inhibition in Clone20-Shn3RL – cell-based, Renilla luciferase, cherry-picked, counter-screen for Shn3 inhibitor project, dose response (AID 624133); format: functional
# [2] = Luminescence Cell-Based Dose Retest to Confirm Inhibitors of Cancer Stem Cells. [Related pubchem assays (depositor defined):AID2717, AID2721]; format: functional; conditions: Homo sapiens
# [3] = viability of HCT116 lacking mutant beta-catenin – cell-based, human colon tumor, dose response (AID 1045); format: functional;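 further: HCT116 colon tumor cells with beta catenin knocked out; cells exposed to compound for 60 hours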
# INS1 = assay: INS-1E survival protection against cytokine death – cell-based, luminescence, retest, dose response (AID 449756); format: functional; conditions: Rattus norvegicus;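 further: cell death triggered by IL-1 beta plus TNF-alpha plus IFN-gamma mixture; protective hits raise ATP signal compared with cytokine alone wells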
# [4] = test system: Streptococcus sp. 'group A'; assay: Streptococcus pyogenes SK(-)GAS viability under kanamycin – luminescence, BacTiterGlo, confirmation, counter-screen for streptokinase expression inhibitor project, dose response (AID 1900); format: functional, organism-based
# [5] = reduction of Shn3 3'UTR-driven luciferase in osteoblasts – cell-based, Clone20 osteoblasts, firefly luciferase, cherry-picked, dose response (AID 624132); format: functional;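 further: firefly luciferase luminescence from reporter carrying the Shn3 3'UTR in osteoblasts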
# [6] = viability of PTEN-deleted HCT116 cells – cell-based, HCT116 PTEN knockout, dose response (AID 1047); format: functional;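 further: HCT116 colon tumor cells with PTEN knocked out; cells exposed to compound for 60 hours before readout; potency for loss of cell viability measured by luminescence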
# Cytochrome P450 3A4 [7] = target: T2, Cytochrome P450 3A4 (Homo sapiens, UniProt P08684);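 further: CYP3A4 tested as one member of a cytochrome P450 panel screen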
# [8] = loss of viability in HepG2 cells – cell-based, CellTiter-Glo, cherry-picked, cytotoxicity control for Shn3 inhibitor project, dose response (AID 624134); format: functional
# [9] = activation of miR-122 Renilla sensor silencing – cell-based, Huh7 psiCHECK-miR122, Renilla luciferase, cherry-picked, dose response (AID 651956); format: functional;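 further: huh7 hepatoma cells stably carrying a psiCHECK-2 miR-122 sensor plasmid; renilla luciferase signal reporting endogenous miR-122 activity after 48 h compound exposure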
# [10] = general mammalian cell viability loss – inhibitor set, cherry-pick, set 2, cytotoxicity control for miR-122 modulator project, dose response (AID 720697); format: functional, cell-based
# Cytochrome P450 2D6 = Cytochrome P450 2D6 (Homo sapiens, UniProt P10635);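 further: CYP2D6 member of a cytochrome P450 panel assay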
# cells [11] = format: functional, cell-based
# cells [12] = format: functional, cell-based; remark: listed apart in the source
# Cytochrome P450 2C19 = Cytochrome P450 2C19 (Homo sapiens, UniProt P33261); assay: Cytochrome panel assay with activity outcomes. Panel member name: p450-cyp2c19 Compounds with AC50 equal or less than 10 uM are considered active; format: functional
# Cytochrome P450 2C9 [13] = target: T3, Cytochrome P450 2C9 (Homo sapiens, UniProt P11712)
# Cytochrome P450 1A2 = target: T4, Cytochrome P450 1A2 (Homo sapiens, UniProt P05177);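 further: PubChem cytochrome P450 panel assay, CYP1A2 panel member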
# T4 sequence (P05177 whole entry): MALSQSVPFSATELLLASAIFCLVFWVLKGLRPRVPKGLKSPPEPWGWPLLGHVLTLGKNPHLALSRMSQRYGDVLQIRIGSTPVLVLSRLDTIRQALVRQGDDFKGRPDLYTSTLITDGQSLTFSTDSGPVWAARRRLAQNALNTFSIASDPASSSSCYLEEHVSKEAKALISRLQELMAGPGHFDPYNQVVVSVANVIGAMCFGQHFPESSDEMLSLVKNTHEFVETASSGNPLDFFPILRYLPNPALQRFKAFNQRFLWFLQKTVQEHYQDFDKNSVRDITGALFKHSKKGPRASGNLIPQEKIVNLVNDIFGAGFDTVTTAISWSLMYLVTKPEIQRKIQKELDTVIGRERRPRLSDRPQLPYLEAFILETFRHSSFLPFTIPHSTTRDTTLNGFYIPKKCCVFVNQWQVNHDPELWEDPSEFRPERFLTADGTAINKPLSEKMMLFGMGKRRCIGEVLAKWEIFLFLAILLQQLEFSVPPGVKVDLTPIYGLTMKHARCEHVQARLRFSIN
# Cytochrome P450 2C9 [14] = target: T3, Cytochrome P450 2C9; remark: listed apart in the source
# [15] = target: T5, Corticotropin-releasing factor receptor 2/Corticotropin-releasing factor-binding protein (Homo sapiens, UniProt P24387+Q13324); assay: activators of CRF receptor 2 with binding protein – uHTS hits, confirmation (AID 602473); format: functional; conditions: read-out: EC50_Mean
# T5 sequence (Q13324 whole entry): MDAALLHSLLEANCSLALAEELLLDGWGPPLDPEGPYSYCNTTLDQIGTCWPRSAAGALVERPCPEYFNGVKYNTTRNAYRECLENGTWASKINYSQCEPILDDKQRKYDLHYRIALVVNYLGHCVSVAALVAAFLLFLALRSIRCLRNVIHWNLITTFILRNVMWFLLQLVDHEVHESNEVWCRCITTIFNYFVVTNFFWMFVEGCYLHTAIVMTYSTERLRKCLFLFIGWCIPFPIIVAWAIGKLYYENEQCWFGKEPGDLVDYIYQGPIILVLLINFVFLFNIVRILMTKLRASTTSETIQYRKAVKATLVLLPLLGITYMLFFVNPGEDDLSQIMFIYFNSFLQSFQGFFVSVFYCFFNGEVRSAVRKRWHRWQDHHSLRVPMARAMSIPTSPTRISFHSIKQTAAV
# T5 sequence (P24387 whole entry): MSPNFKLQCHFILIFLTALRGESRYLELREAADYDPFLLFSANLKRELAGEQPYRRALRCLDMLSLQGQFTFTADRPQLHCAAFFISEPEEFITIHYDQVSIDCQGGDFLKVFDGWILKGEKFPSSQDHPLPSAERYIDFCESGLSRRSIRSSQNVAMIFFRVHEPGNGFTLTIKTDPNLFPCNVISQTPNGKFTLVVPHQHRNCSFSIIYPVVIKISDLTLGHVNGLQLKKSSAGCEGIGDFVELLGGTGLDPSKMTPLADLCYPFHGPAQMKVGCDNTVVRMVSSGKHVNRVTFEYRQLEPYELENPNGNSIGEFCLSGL
# [16] = target: T5, Corticotropin-releasing factor receptor 2/Corticotropin-releasing factor-binding protein; assay: Dose Response confirmation of uHTS hits for small molecule antagonists of the CRF-binding protein and CRF-R2 receptor complex.; format: functional; conditions: read-out: IC50_Mean
# [17] = blockade of melanocortin 4 receptor signaling – cell-based, plate reader, cherry pick, counter-screen for LGR2 antagonist project, dose response (AID 743444); format: functional;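 further: transfected HEK 293 cells stimulated with alpha-MSH peptide; potency of inhibitors of the alpha-MSH evoked signal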
# [18] = blockers of bursicon-stimulated LGR2 cAMP reporter – cell-based, HEK293, CRE-luciferase reporter, cherry pick, set 2, dose response (AID 743343); format: functional;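 further: transfected cells were stimulated with diluted bursicon conditioned medium after compound addition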
# H4 = assay: Luminescence Cell-Based Dose Response HTS to Identify Activators of 5'UTR Stem-Loop Driven Prion Protein mRNA Translation in H4 Neuroglioblastoma Cells. [Related pubchem assays: 1829 (Project Summary), 1814 (Primary HTS)]; format: functional; conditions: Homo sapiens
# [19] = Luminescence Cell-Based Dose Confirmation HTS to Identify Activators of 5'UTR Stem-Loop Driven Alpha-Synuclein mRNA Translation in H4 Neuroglioblastoma Cells. [Related pubchem assays: 1829 (Project Summary), 1814 (Primary HTS)]; format: functional
# [20] = Luminescence Cell-Based Dose Response HTS to Identify Activators of Luciferase Translation or Activity in H4 […] Cells. [Related pubchem assays: 1829 (Project Summary), 1814 (Primary HTS)]; format: functional
# Cytochrome P450 3A4 [21] = target: T2, Cytochrome P450 3A4; remark: listed apart in the source
# Sequence of Cytochrome P450 2C19 (P33261 whole entry): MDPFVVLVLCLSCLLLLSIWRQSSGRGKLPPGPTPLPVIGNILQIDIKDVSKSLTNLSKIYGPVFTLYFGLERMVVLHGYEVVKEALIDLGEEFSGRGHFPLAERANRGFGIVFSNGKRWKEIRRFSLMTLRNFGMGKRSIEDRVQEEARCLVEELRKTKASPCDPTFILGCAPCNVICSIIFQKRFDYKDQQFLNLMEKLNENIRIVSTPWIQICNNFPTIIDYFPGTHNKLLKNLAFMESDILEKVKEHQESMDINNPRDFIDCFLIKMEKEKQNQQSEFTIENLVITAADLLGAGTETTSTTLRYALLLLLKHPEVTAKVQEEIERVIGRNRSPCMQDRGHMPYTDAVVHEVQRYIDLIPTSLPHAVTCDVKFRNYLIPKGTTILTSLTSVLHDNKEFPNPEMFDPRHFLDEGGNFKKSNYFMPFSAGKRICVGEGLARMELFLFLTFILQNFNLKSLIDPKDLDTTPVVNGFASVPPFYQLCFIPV
# Sequence of Cytochrome P450 2D6 (P10635 whole entry): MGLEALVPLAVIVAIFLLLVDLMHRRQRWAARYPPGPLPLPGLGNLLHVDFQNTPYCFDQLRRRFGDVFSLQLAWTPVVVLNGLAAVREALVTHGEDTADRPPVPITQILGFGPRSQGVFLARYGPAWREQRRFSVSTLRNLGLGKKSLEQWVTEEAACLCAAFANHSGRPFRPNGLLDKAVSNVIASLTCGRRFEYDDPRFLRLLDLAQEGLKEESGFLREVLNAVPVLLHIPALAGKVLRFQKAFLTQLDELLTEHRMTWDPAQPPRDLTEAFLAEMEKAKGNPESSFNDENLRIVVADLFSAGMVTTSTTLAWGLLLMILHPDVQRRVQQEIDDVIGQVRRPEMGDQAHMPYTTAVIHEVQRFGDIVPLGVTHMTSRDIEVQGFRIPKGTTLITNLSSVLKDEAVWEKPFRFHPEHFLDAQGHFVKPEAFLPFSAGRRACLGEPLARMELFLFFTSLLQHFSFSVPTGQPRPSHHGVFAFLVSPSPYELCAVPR
# T2 sequence (P08684 whole entry): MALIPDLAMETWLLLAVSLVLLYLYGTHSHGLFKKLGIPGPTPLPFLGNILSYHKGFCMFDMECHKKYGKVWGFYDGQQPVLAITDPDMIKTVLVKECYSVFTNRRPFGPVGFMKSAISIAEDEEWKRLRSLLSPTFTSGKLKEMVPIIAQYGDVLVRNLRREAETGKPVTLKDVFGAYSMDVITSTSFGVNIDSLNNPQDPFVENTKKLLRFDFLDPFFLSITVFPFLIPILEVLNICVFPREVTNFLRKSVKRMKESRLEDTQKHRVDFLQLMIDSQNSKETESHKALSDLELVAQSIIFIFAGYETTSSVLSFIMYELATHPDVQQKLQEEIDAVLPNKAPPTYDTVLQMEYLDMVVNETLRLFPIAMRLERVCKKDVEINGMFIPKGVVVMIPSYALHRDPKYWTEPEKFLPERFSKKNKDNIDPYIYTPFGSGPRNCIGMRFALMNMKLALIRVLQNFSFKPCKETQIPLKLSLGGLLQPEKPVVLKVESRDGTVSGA
# T3 sequence (P11712 whole entry): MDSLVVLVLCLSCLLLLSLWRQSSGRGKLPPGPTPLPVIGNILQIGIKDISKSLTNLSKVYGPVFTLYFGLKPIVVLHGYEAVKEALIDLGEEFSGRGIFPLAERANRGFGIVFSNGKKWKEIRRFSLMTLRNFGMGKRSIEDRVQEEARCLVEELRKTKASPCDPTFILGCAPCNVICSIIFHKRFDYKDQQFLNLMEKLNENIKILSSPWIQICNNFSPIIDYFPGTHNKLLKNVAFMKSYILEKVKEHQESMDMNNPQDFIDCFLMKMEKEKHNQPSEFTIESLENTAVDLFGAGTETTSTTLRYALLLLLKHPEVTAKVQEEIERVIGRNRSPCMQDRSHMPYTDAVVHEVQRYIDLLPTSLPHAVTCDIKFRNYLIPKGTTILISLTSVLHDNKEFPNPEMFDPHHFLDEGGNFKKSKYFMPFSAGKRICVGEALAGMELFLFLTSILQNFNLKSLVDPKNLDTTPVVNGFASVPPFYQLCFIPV
smiles,measurement,setting,value
Cc1nn(Cc2c(Cl)cccc2Cl)c(C)c1NC(=O)c1cn(-c2ccccc2)nc1-c1ccccc1,EC50,Streptococcus,21.6 µM (active)
same,EC50,Streptokinase A,> 150 µM (not active)
same,AC50,[1],25.8 µM (active)
same,AC50,[2],1.01 µM (active)
same,EC50,[3],4.04 µM (active)
same,AC50,INS1,2.46 µM (active)
same,EC50,[4],8.01 µM (active)
same,AC50,[5],55 µM (active)
same,EC50,[6],4.36 µM (active)
N#Cc1ccc(CN2CCC3(CC2)CCN(C(=O)Oc2ccccc2)CC3)cc1,AC50,Cytochrome P450 3A4 [7],inconclusive
CC(C)CC(N)c1csc(NC(=O)c2cc(C(C)(C)C)nn2Cc2ccccc2)n1 (stereo not drawn),AC50,[1],20.8 µM (active)
same,AC50,[8],8.75 µM (active)
same,AC50,[5],4.85 µM (active)
C[C@H](CO)N1C[C@H](C)[C@@H](CN(C)Cc2ccc(Oc3ccccc3)cc2)Oc2ncc(-c3cncnc3)cc2C1=O,AC50,[9],26 µM (active)
same,AC50,[10],0.511 µM (active)
C#CC[N+](CC)(CC)CC#Cc1cccc(Cl)c1.[Br-],AC50,Cytochrome P450 3A4 [7],inconclusive
same,AC50,Cytochrome P450 2D6,2.24 µM (inconclusive)
CC(C)(C)NC(=O)CN(Cc1ccc2c(c1)OCO2)C(=O)CNS(=O)(=O)c1ccc(F)cc1,EC50,cells [11],> 350 µM (not active)
same,EC50,cells [12],> 350 µM (not active)
CC(=O)O[C@H]1CC[C@@]2(C)[C@@H](CC[C@H]3[C@H]2CC(=O)[C@@]2(C)[C@@H]3C[C@H]3CC(C)=CC(=O)[C@H]32)C1,AC50,Cytochrome P450 3A4 [7],inconclusive
O=C(Oc1ccccc1)N1CCC2(CC1)CCN(c1ccccc1)CC2,AC50,Cytochrome P450 3A4 [7],inconclusive
O=S(=O)(NCc1nnc2c(C(F)(F)F)cc(Cl)cn12)c1ccccc1,EC50,Streptococcus,> 150 µM (not active)
same,EC50,Streptokinase A,> 150 µM (not active)
same,EC50,cells [11],> 350 µM (not active)
same,EC50,[4],> 150 µM (not active)
same,EC50,cells [12],> 350 µM (not active)
C[C@@]12CC[C@H]3[C@@H](CCC4=CC(=O)CC[C@]43C)[C@H]1CC[C@H]2C(=O)CO,AC50,Cytochrome P450 3A4 [7],inconclusive
O=C(/C=C/c1cc2c(cc1Br)OCO2)NCc1ccc(Cl)cc1,AC50,Cytochrome P450 2C19; read-out: AC50,17.8 µM (inconclusive)
same,AC50,Cytochrome P450 2C9 [13],inconclusive
CCCSCCCNC(=O)c1ccccc1NC(=O)C1=CSCCO1,EC50,cells [11],297 µM (active)
same,EC50,cells [12],> 350 µM (not active)
COc1ccc(CN2CCOC2=O)cc1OC,AC50,[10],9.25 µM (active)
C/C=C/c1ccc([C@H]2[C@@H](CNC(=O)CC)N(Cc3ccccn3)[C@H]2CO)cc1,AC50,[10],0.454 µM (active)
COc1ccccc1C(=O)Nc1ccccc1SC(=O)c1ccccc1OC,EC50,cells [11],> 350 µM (not active)
same,EC50,cells [12],> 350 µM (not active)
O=C1CCCc2ccccc2N1Cc1ccc(F)cc1,EC50,cells [11],> 350 µM (not active)
same,EC50,cells [12],> 350 µM (not active)
COc1cc(/C=C/C(=O)Nc2cc(C(F)(F)F)ccc2Cl)cc(OC)c1OC,AC50,Cytochrome P450 2C9 [13],inconclusive
same,AC50,Cytochrome P450 1A2,15.8 µM (inconclusive)
same,AC50,Cytochrome P450 2D6,0.00562 µM (inconclusive)
CCSc1ncnc2c1sc1nc(-c3ccco3)c3c(c12)CC(C)(C)OC3,AC50,Cytochrome P450 3A4 [7],inconclusive
same,AC50,Cytochrome P450 2C9 [14],2 µM (inconclusive)
Cc1cc2nc(C)n(CCCN)c2cc1C.Cl,AC50,Cytochrome P450 2C19,inconclusive
same,EC50,[15],> 53 µM (inactive)
same,IC50,[16],> 47.1 µM (inactive)
same,AC50,Cytochrome P450 2C9 [13],inconclusive
Cc1c(NC(=O)c2ccc(-c3ccccc3)cc2)cccc1C(=O)O,AC50,[17],13.5 µM (active)
same,AC50,[18],17.1 µM (active)
NS(=O)(=O)c1ccc(CNC(=O)/C=C/c2c(Cl)cccc2Cl)cc1,AC50,Cytochrome P450 2C19; read-out: AC50,25.1 µM (inconclusive)
same,AC50,Cytochrome P450 2C9 [13],inconclusive
COc1ccc(S(=O)(=O)Nc2cccc(Cl)c2)cc1OC,AC50,Cytochrome P450 2C9 [13],inconclusive
same,AC50,Cytochrome P450 1A2,31.6 µM (inconclusive)
Cc1nc2ccc3nc(NC(=O)c4ccc(S(=O)(=O)N5CCOCC5)cc4)sc3c2s1,AC50,Cytochrome P450 3A4 [7],inconclusive
CC(C)OC(=O)CC12CN(C)CC(CC(=O)OC(C)C)(CN(C)C1)C2=O,EC50,H4,37 µM (active)
same,EC50,[19],47.6 µM (active)
same,AC50,Cytochrome P450 2C9 [13],inconclusive
same,EC50,[20],72.4 µM (active)
O=C(CN1CCC(C(=O)c2ccc(Cl)cc2)CC1)Nc1ccc2c(c1)OCCO2,EC50,cells [11],> 350 µM (not active)
same,EC50,cells [12],> 350 µM (not active)
O=c1c2ccccc2nnn1CSc1nnnn1-c1ccccc1,AC50,Cytochrome P450 3A4 [21],12.6 µM (inconclusive)
same,AC50,Cytochrome P450 2C9 [13],inconclusive
same,AC50,Cytochrome P450 1A2,25.1 µM (inconclusive)
same,AC50,Cytochrome P450 2D6,17.8 µM (inconclusive)
